Read-outs that look alike come from different tables or passages of the source.
How the values were obtained:
CYP3A4 = target: T1, CYP3A4 (Homo sapiens, UniProt P08684); test: CYP enzyme inhibition test, P450-Glo CYP3A4 Screening System; type: in vitro ADME; settings: Luciferin-IPA 3 µM
T1 construct: purchased Promega
Experimental: (§1) Test Example 5: CYP enzyme (Cytocrome P450) inhibition test
(§2) • 1. Test system: • P450-Glo™ CYP1A2 Screening System (Promega); • P450-Glo™ CYP2D6 Screening System (Promega); • P450-Glo™ CYP3A4 Screening System (Promega). • 2. Test instrument: BMG PHERAstar FS Luminescent. • 3. Test method: The test was carried out according to the kit instructions, and the steps were as follows: 3.1. Inhibition of CYP1A2:
(§3) Test group: The test compound of different concentration was added to the microplate, Luciferin-IPA (3 µM), K3PO4 (100 mM) and CYP3A4 (2 nM) were added to each well, and pre-incubated at room temperature for 10 min, followed by an addition of the NADPH regeneration system, and reacted at room temperature for 30 min, an equal volume of detection buffer was added at last, and incubated at room temperature for 20 min, and then chemiluminescence detection was performed.
(§4) Negative control group: The experimental method was the same as that of the test group, but the test compound was not added.
Blank control group: The experimental method was the same as that of the test group, but the test compound was not added, and CYP3A4 Membrance (2 nM) was used instead of CYP3A4.
(§5) The median inhibitory concentration (IC50) or range of the compound was estimated according to the inhibition rate of CYP enzymes at different concentrations: IC50 = X × (1 - percent inhibition rate (%)) / percent inhibition rate (%), wherein X is the test concentration of the compound.

CYP1A2 = target: T2, CYP1A2 (Homo sapiens, UniProt P05177); test: CYP enzyme inhibition test, P450-Glo CYP1A2 Screening System; type: in vitro ADME
T2 construct: purchased Promega
T2 sequence (P05177 1-516): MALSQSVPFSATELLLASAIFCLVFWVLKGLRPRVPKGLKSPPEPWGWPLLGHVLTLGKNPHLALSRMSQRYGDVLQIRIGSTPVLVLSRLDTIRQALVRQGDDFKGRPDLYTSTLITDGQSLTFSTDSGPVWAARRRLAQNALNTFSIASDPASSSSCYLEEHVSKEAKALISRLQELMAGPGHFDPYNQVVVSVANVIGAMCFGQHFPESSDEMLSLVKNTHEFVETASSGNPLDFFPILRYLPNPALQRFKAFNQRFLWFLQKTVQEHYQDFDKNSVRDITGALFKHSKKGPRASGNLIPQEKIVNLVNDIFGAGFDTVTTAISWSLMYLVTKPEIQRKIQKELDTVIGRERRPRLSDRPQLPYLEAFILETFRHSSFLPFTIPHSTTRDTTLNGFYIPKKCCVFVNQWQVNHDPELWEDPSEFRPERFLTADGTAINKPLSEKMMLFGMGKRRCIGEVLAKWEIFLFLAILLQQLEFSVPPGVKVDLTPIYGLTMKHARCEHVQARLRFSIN
Experimental: Test Example 5: CYP enzyme (Cytocrome P450) inhibition test […] Test system: • P450-Glo™ CYP1A2 Screening System (Promega); • P450-Glo™ CYP2D6 Screening System (Promega); • P450-Glo™ CYP3A4 Screening System (Promega). • 2. Test instrument: BMG PHERAstar FS Luminescent. • 3. Test method: The test was carried out according to the kit instructions, and the steps were as follows: 3.1. Inhibition of CYP1A2: Test group: […] Negative control group: The experimental method was the same as that of the test group, but the test compound was not added. Blank control group: […] The median inhibitory concentration (IC50) or range of the compound was estimated according to the inhibition rate of CYP enzymes at different concentrations: […]

CYP2D6 = target: T3, CYP2D6 (Homo sapiens, UniProt P10635); test: CYP enzyme inhibition test, P450-Glo CYP2D6 Screening System; type: in vitro ADME; settings: Luciferin-ME EGE 3 µM
T3 construct: purchased Promega
T3 sequence (P10635 whole entry): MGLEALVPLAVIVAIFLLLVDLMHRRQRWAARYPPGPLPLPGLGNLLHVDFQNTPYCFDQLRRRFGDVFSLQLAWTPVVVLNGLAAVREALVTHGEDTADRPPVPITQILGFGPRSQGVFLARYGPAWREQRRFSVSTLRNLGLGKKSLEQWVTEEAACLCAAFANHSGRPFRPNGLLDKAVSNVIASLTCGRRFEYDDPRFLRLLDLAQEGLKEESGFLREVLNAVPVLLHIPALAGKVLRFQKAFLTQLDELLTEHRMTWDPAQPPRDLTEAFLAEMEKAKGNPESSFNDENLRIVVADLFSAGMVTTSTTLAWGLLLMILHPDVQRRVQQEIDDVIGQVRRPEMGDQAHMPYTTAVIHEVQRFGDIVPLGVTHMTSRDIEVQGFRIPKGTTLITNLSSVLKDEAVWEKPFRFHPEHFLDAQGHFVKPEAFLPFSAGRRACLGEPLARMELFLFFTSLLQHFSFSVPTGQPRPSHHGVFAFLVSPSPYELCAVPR
Experimental: as §1, §2
as §3, with “the microplate, and Luciferin-ME EGE (3 µM),” for “the microplate, Luciferin-IPA (3 µM),”, “mM) and CYP2D6 (5 nM) were” for “mM) and CYP3A4 (2 nM) were”, “reacted at 37°C for 30” for “reacted at room temperature for 30”
as §4
Blank control group: The experimental method was the same as that of the test group, but the test compound was not added, and CYP2D6 Membrance (5 nM) was used instead of CYP2D6.
as §5

hERG = target: T4, hERG (Homo sapiens, UniProt Q12809); test: Biochemical hERG inhibition test, Predictor hERG fluorescence polarization kit; type: binding; settings: hERG cell membrane, competition with Tracer 1 nM, 10 µM and 1 µM test compound, 2 h
T4 construct: purchased ThermoFisher
T4 sequence (Q12809 whole entry): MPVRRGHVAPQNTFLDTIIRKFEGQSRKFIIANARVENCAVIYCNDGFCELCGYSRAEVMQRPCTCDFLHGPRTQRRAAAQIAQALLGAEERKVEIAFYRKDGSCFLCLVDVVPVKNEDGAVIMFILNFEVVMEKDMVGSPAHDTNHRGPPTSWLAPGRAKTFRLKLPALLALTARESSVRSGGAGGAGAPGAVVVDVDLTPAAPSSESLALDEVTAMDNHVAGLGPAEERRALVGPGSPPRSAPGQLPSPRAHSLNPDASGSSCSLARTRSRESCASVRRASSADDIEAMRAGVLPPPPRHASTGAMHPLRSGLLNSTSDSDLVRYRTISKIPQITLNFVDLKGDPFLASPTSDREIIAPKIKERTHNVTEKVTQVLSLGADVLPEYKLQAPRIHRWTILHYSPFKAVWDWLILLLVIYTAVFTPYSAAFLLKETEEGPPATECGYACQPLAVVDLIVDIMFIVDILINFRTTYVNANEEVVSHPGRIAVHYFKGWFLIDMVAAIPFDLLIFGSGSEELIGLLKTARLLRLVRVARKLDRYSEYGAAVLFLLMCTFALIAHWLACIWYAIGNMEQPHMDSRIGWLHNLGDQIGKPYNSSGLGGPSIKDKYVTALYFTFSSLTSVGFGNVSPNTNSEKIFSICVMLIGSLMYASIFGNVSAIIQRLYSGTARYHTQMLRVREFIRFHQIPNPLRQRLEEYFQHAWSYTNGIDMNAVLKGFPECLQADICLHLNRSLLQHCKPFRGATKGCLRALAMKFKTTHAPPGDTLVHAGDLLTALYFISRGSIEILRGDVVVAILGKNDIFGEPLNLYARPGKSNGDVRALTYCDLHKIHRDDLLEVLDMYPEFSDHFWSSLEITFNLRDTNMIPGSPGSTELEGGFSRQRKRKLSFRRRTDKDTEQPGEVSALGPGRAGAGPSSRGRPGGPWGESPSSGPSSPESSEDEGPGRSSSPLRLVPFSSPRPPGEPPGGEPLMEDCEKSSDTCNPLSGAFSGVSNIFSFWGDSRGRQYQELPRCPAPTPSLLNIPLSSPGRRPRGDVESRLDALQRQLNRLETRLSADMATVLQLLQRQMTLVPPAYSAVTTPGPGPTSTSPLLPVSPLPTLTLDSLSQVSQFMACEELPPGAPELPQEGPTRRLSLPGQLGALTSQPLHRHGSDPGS
Experimental: Test Example 4: Biochemical hERG inhibition test
• 1. Test system: Kit: Predictor™ hERG fluorescence polarization detection kit (ThermoFisher), the kit contained the following components: positive control compound hERG potassium channel blocker E4031; hERG cell membrane; affinity tracer Tracer; and hERG buffer. • 2. Test parameters: hERG concentration: 1×; Tracer concentration: 1 nM; incubation time: 2 h; BMG PHERAstar FSFP. • 3.
Positive control group: 30 µM positive control compound E4031 was used to replace the test compound, and the experimental method was the same as that of the test group.
Blank control group: hERG buffer was used to replace the test compound without the addition of hERG cell membrane, and the experimental method was the same as that of the test group.
According to the data ratio, the percent inhibition rates (%) of the compounds of the present invention to hERG at different concentrations were calculated, and the ranges of the half inhibitory concentration (IC50) of the compounds were determined.

[1] = Luciferin-ME 100 µM, read-out: IC50 (µM) CYP1A2

T1 sequence (P08684 whole entry): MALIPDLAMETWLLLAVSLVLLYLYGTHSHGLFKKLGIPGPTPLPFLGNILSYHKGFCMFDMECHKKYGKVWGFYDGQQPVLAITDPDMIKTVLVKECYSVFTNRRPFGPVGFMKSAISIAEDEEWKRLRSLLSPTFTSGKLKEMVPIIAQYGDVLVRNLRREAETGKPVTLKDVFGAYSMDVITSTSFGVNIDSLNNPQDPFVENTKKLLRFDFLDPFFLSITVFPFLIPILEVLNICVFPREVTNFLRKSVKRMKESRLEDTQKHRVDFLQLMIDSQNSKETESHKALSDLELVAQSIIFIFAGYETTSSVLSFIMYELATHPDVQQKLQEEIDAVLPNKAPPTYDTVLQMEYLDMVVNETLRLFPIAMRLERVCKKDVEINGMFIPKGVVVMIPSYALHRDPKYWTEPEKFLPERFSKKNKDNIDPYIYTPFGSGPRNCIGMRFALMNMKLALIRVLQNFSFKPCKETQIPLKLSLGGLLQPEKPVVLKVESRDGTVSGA

IC50 (CYP3A4) [µM]	IC50 (CYP2D6) [µM]	IC50 (CYP1A2; [1]) [µM]	SMILES	IC50 (CYP1A2) [µM]	IC50 (hERG) [µM]	IC50 (CYP3A4; 30 min) [µM]	IC50 (CYP1A2; Luciferin-ME 100 µM, 30 min, read-out: IC50 (µM) CYP1A2) [µM]	IC50 (CYP2D6; 30 min) [µM]
–	–	–	Cc1cccc(-n2nc3c(c2-c2ccn4ncc(C(N)=O)c4c2)CCC3)n1 [Example 6, 5-[2-(6-methylpyridin-2-yl)-2,4,5,6-tetrahydrocyclopenteno[c]pyrazol-3-yl]pyrazolo[1,5-a]pyridine-3-carboxamide]	–	> 10	> 10	> 10	> 10
> 10	> 10	> 10	CNc1cc(-c2ccn3ncc(C(N)=O)c3c2)n(-c2cccc(C)n2)n1 [Example 8, 5-(3-(methylamino)-1-(6-methylpyridin-2-yl)-1H-pyrazol-5-yl)pyrazolo[1,5-a]pyridine-3-carboxamide]	–	> 10	–	–	–
> 10	> 10	> 10	Cc1cccc(-n2nc(NCc3ccc(F)cc3)cc2-c2ccn3ncc(C(N)=O)c3c2)n1 [Example 11, 5-(3-(4-fluorobenzylamino)-1-(6-methylpyridin-2-yl)-1H-pyrazol-5-yl)pyrazolo[1,5-a]pyridine-3-carboxamide]	–	> 10	–	–	–
> 10	> 10	> 10	Cc1cccc(-n2nccc2-c2ccn3ncc(C(N)=O)c3c2)n1 [Example 12, 5-(1-(6-methylpyridin-2-yl)-1H-pyrazol-5-yl)pyrazolo[1,5-a]pyridine-3-carboxamide]	–	> 10	–	–	–

SMILES	IC50 (CYP3A4) [µM]	IC50 (CYP2D6) [µM]	IC50 (CYP1A2; [1]) [µM]	IC50 (CYP1A2) [µM]	IC50 (hERG) [µM]	IC50 (CYP3A4; 30 min) [µM]	IC50 (CYP1A2; Luciferin-ME 100 µM, 30 min, read-out: IC50 (µM) CYP1A2) [µM]	IC50 (CYP2D6; 30 min) [µM]
Cc1cccc(-n2nc3c(c2-c2ccn4nccc4c2)CCC3)n1 [Example 4, 5-[2-(6-methylpyridin-2-yl)-2,4,5,6-tetrahydrocyclopenteno [c]pyrazol-3-yl]pyrazolo[1,5-a]pyridine]	> 10	> 10	–	> 10	> 10	–	–	–
Cc1cccc(-n2nc(NC(C)c3ccc(F)cc3)cc2-c2ccn3ncc(C(N)=O)c3c2)n1 (stereo not drawn) [Example 10, 5-(3-(1-(4-fluorophenyl)ethylamino)-1-(6-methylpyridin-2-yl)-1H-pyrazol-5-yl)pyridino[1,5-a]pyridine-3-carboxamide]	> 10	> 10	–	> 10	> 10	–	–	–

From EP4219453A1 (Sichuan Kelun-Biotech Biopharmaceutical Co., Ltd., priority 2020, dated 2022)
